Laboratory results reported in patent US20250346593A1, “IMIDAZO(1,2-1)PYRIDINE DERIVATIVES AS RIPK2 INHIBITORS” (Interline Therapeutics, Inc., priority 2022, published 2025).
Read-outs that look alike come from different tables or passages of the source.

Assays:
[1] = test system: NF-κB pathway (SEAP) in THP1-Dual cells; assay: THP-1 Dual cell SEAP assay (L18-MDP stimulated); type: cell-based; settings: Homo sapiens, THP1-Dual, read-out: NFkB THP1 IC50
[2] = target: GST-RIPK2 fusion protein (human RIPK2 amino acids 1-310) (Homo sapiens (Human), UniProt O43353); assay: RIPK2 binding competition assay (TR-FRET, Tracer 199)
[3] = read-out: RIPK2 IC50, RIPK2 binding competition assay

Sequence of GST-RIPK2 fusion protein (human RIPK2 amino acids 1-310) (O43353 1-310): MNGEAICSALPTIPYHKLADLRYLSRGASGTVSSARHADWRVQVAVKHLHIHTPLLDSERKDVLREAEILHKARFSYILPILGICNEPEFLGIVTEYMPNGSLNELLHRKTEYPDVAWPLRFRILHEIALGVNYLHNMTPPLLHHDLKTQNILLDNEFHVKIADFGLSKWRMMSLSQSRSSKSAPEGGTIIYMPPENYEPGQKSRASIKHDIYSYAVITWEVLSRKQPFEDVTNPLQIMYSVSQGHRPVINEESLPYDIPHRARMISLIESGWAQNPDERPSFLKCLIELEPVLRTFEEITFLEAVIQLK

SMILES | IC50 [1] | IC50 [2, 3] | IC50 [2]
CNc1cncc(-c2cnc3cc(OC)c(S(=O)(=O)C(C)(C)C)cn23)c1 [Example 34, 5-(6-(tert-butylsulfonyl)-7-methoxyimidazo[1,2-a]pyridin-3-yl)-N-methylpyridin-3-amine] | > 1000 nM | > 20 nM | –
COc1cc2ncc(-c3cc(N)c(C)c(F)c3)n2cc1S(=O)(=O)C(C)(C)C [Example 35, 5-(6-(tert-butylsulfonyl)-7-methoxyimidazo[1,2-a]pyridin-3-yl)-3-fluoro-2-methylaniline] | > 1000 nM | > 20 nM | –
COc1cc2ncc(-c3cccc(N)c3)n2cc1S(=O)(=O)C(C)(C)C [Example 36, 3-(6-(tert-butylsulfonyl)-7-methoxyimidazo[1,2-a]pyridin-3-yl)aniline] | > 1000 nM | > 20 nM | –
COc1cc2ncc(-c3cc(N)cc(S(C)(=O)=O)c3)n2cc1S(=O)(=O)C(C)(C)C [Example 37, 3-(6-(tert-butylsulfonyl)-7-methoxyimidazo[1,2-a]pyridin-3-yl)-5-(methylsulfonyl)aniline] | > 1000 nM | > 20 nM | –
COc1cc2ncc(-c3cc(F)cc(N)c3F)n2cc1S(=O)(=O)C(C)(C)C [Example 38, 3-(6-(tert-butylsulfonyl)-7-methoxyimidazo[1,2-a]pyridin-3-yl)-2,5-difluoroaniline] | 50 to 250 nM | – | 1 to 2.5 nM
COc1cc2ncc(-c3ccc(OC(F)F)c(N)c3)n2cc1S(=O)(=O)C(C)(C)C [Example 39, 5-(6-(tert-butylsulfonyl)-7-methoxyimidazo[1,2-a]pyridin-3-yl)-2-(difluoromethoxy)aniline] | 50 to 250 nM | – | 2.5 to 20 nM
COc1cc2ncc(-c3cc(F)c(N)c(N)c3F)n2cc1S(=O)(=O)C(C)(C)C [Example 40, 4-(6-(tert-butylsulfonyl)-7-methoxyimidazo[1,2-a]pyridin-3-yl)-3,6-difluorobenzene-1,2-diamine] | 250 to 1000 nM | – | 2.5 to 20 nM
COc1cc2ncc(-c3cc(N)cc(C#N)c3)n2cc1S(=O)(=O)C(C)(C)C [Example 41, 3-amino-5-(6-(tert-butylsulfonyl)-7-methoxyimidazo[1,2-a]pyridin-3-yl)benzonitrile] | 50 to 250 nM | – | 2.5 to 20 nM
COc1cc2ncc(-c3cc(N)cc(OC(F)F)c3)n2cc1S(=O)(=O)C(C)(C)C [Example 42, 3-(6-(tert-butylsulfonyl)-7-methoxyimidazo[1,2-a]pyridin-3-yl)-5-(difluoromethoxy)aniline] | 250 to 1000 nM | – | 2.5 to 20 nM
COc1cc2ncc(-c3cc(N)c(F)c(OC)c3)n2cc1S(=O)(=O)C(C)(C)C [Example 43, 5-(6-(tert-butylsulfonyl)-7-methoxyimidazo[1,2-a]pyridin-3-yl)-2-fluoro-3-methoxyaniline] | 50 to 250 nM | – | 2.5 to 20 nM
COc1cc2ncc(-c3cc(N)c(F)c(F)c3)n2cc1S(=O)(=O)C(C)(C)C [Example 44, 5-(6-(tert-butylsulfonyl)-7-methoxyimidazo[1,2-a]pyridin-3-yl)-2,3-difluoroaniline] | 50 to 250 nM | – | 2.5 to 20 nM
COc1ccn2c(-c3cc(F)nc(F)c3)cnc2c1 [Example 45, 3-(2,6-difluoropyridin-4-yl)-7-methoxyimidazo[1,2-a]pyridine] | > 1000 nM | > 20 nM | –
COc1cc(N)cc(-c2cnc3cc(OC)c(S(=O)(=O)C(C)(C)C)cn23)c1 [Example 46, 3-(6-(tert-butylsulfonyl)-7-methoxyimidazo[1,2-a]pyridin-3-yl)-5-methoxyaniline] | 50 to 250 nM | – | 2.5 to 20 nM
COc1cc2ncc(-c3cc(N)c(OC)c(OC)c3)n2cc1S(=O)(=O)C(C)(C)C [Example 47, 5-(6-(tert-butylsulfonyl)-7-methoxyimidazo[1,2-a]pyridin-3-yl)-2,3-dimethoxyaniline] | > 1000 nM | – | 2.5 to 20 nM
COc1cc2ncc(-c3cc(C)c(F)c(N)c3)n2cc1S(=O)(=O)C(C)(C)C [Example 48, 5-(6-(tert-butylsulfonyl)-7-methoxyimidazo[1,2-a]pyridin-3-yl)-2-fluoro-3-methylaniline] | > 1000 nM | > 20 nM | –
COCc1cc(N)cc(-c2cnc3cc(OC)c(S(=O)(=O)C(C)(C)C)cn23)c1 [Example 49, 3-(6-(tert-butylsulfonyl)-7-methoxyimidazo[1,2-a]pyridin-3-yl)-5-(methoxymethyl)aniline] | 250 to 1000 nM | > 20 nM | –
COc1cc2ncc(-c3cnc(OC(F)F)c(N)c3)n2cc1S(=O)(=O)C(C)(C)C [Example 50, 5-(6-(tert-butylsulfonyl)-7-methoxyimidazo[1,2-a]pyridin-3-yl)-2-(difluoromethoxy)pyridin-3-amine] | > 1000 nM | > 20 nM | –
COc1cc2ncc(-c3cc(N)c(OC)c(C#N)c3)n2cc1S(=O)(=O)C(C)(C)C [Example 51, 3-amino-5-(6-(tert-butylsulfonyl)-7-methoxyimidazo[1,2-a]pyridin-3-yl)-2-methoxybenzonitrile] | > 1000 nM | > 20 nM | –

SMILES | IC50 [1] | IC50 [2, 3] | IC50 [2]
COc1cc2ncc(-c3cc(F)c(OC)c(N)c3F)n2cc1S(=O)(=O)C(C)(C)C [Example 52, 3-(6-(tert-butylsulfonyl)-7-methoxyimidazo[1,2-a]pyridin-3-yl)-2,5-difluoro-6-methoxyaniline] | 250 to 1000 nM | – | 2.5 to 20 nM
COc1cc(-c2cnc3cc(OC)c(S(=O)(=O)C(C)(C)C)cn23)cc(N)n1 [Example 53, 4-(6-(tert-butylsulfonyl)-7-methoxyimidazo[1,2-a]pyridin-3-yl)-6-methoxypyridin-2-amine] | 50 to 250 nM | – | 2.5 to 20 nM
COc1cc2ncc(-c3cnc(OC)c(N)c3)n2cc1S(=O)(=O)C(C)(C)C [Example 54, 5-(6-(tert-butylsulfonyl)-7-methoxyimidazo[1,2-a]pyridin-3-yl)-2-methoxypyridin-3-amine] | > 1000 nM | > 20 nM | –
COc1cc2ncc(-c3cc(C)c(OC)c(Cl)n3)n2cc1S(=O)(=O)C(C)(C)C [Example 55, 6-(tert-butylsulfonyl)-3-(6-chloro-5-methoxy-4-methylpyridin-2-yl)-7-methoxyimidazo[1,2-a]pyridine] | > 1000 nM | > 20 nM | –
COc1cc2ncc(-c3cc(F)c(OC)c(C#N)c3)n2cc1S(=O)(=O)C(C)(C)C [Example 56, 5-(6-(tert-butylsulfonyl)-7-methoxyimidazo[1,2-a]pyridin-3-yl)-3-fluoro-2-methoxybenzonitrile] | > 1000 nM | > 20 nM | –
COc1cc2ncc(-c3cc(F)c(OC)c(F)c3)n2cc1S(=O)(=O)C(C)(C)C [Example 57, 6-(tert-butylsulfonyl)-3-(3,5-difluoro-4-methoxyphenyl)-7-methoxyimidazo[1,2-a]pyridine] | > 1000 nM | > 20 nM | –
COc1cc2ncc(-c3cc(F)c(OC)c(OC)c3)n2cc1S(=O)(=O)C(C)(C)C [Example 58, 6-(tert-butylsulfonyl)-3-(3-fluoro-4,5-dimethoxyphenyl)-7-methoxyimidazo[1,2-a]pyridine] | > 1000 nM | – | 2.5 to 20 nM
COc1cc2ncc(-c3cc(F)c(OC)c(CCO)c3)n2cc1S(=O)(=O)C(C)(C)C [Example 59, 2-(5-(6-(tert-butylsulfonyl)-7-methoxyimidazo[1,2-a]pyridin-3-yl)-3-fluoro-2-methoxyphenyl)ethan-1-ol] | 250 to 1000 nM | – | 2.5 to 20 nM
COc1cc2ncc(-c3csnc3OC)n2cc1S(=O)(=O)C(C)(C)C [Example 60, 4-(6-(tert-butylsulfonyl)-7-methoxyimidazo[1,2-a]pyridin-3-yl)-3-methoxyisothiazole] | > 1000 nM | – | 2.5 to 20 nM
COc1cc2ncc(-c3cc(F)cc(F)n3)n2cc1S(=O)(=O)C(C)(C)C [Example 61, 6-(tert-butylsulfonyl)-3-(4,6-difluoropyridin-2-yl)-7-methoxyimidazo[1,2-a]pyridine] | 250 to 1000 nM | > 20 nM | –
CCOc1ncc(-c2cnc3cc(OC)c(S(=O)(=O)C(C)(C)C)cn23)s1 [Example 62, 5-(6-(tert-butylsulfonyl)-7-methoxyimidazo[1,2-a]pyridin-3-yl)-2-ethoxythiazole] | > 1000 nM | > 20 nM | –
COc1cc2ncc(-c3cc(N)c(OCCO)c(F)c3)n2cc1S(=O)(=O)C(C)(C)C [Example 64, 2-(2-amino-4-(6-(tert-butylsulfonyl)-7-methoxyimidazo[1,2-a]pyridin-3-yl)-6-fluorophenoxy)ethan-1-ol] | 50 to 250 nM | – | 2.5 to 20 nM
COc1cc2ncc(-c3cc(N)c(OC(F)F)c(F)c3)n2cc1S(=O)(=O)C(C)(C)C [Example 65, 5-(6-(tert-butylsulfonyl)-7-methoxyimidazo[1,2-a]pyridin-3-yl)-2-(difluoromethoxy)-3-fluoroaniline] | 50 to 250 nM | – | 1 to 2.5 nM
CCOc1c(N)cc(-c2cnc3cc(OC)c(S(=O)(=O)C(C)(C)C)cn23)cc1F [Example 66, 5-(6-(tert-butylsulfonyl)-7-methoxyimidazo[1,2-a]pyridin-3-yl)-2-ethoxy-3-fluoroaniline] | > 1000 nM | > 20 nM | –
COc1cc2ncc(-c3ccc(N4CCCC4=O)nc3)n2cc1S(=O)(=O)C(C)(C)C [Example 67, 1-(5-(6-(tert-butylsulfonyl)-7-methoxyimidazo[1,2-a]pyridin-3-yl)pyridin-2-yl)pyrrolidin-2-one] | > 1000 nM | > 20 nM | –
COc1cc2ncc(-c3cnc(N)c(C)c3)n2cc1S(=O)(=O)C(C)(C)C [Example 68, 5-(6-(tert-butylsulfonyl)-7-methoxyimidazo[1,2-a]pyridin-3-yl)-3-methylpyridin-2-amine] | > 1000 nM | > 20 nM | –
CNc1ccc(-c2cnc3cc(OC)c(S(=O)(=O)C(C)(C)C)cn23)cn1 [Example 69, 5-(6-(tert-butylsulfonyl)-7-methoxyimidazo[1,2-a]pyridin-3-yl)-N-methylpyridin-2-amine] | > 1000 nM | > 20 nM | –
